This note sets out measurements from PubChem BioAssay (NCI).

The structures appear in SMILES notation. Several values for one entry are separate records, joined by “and”; a condition that tells them apart may be missing. Identical values can stand only once.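 Protocol summary: plate cells (96-well), add compound at 5 concentrations, incubate 48 h, interpolate endpoints linearly. Abbreviation: GI50, concentration required for 50% inhibition of growth. TGI: total growth inhibition.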

Test in all cases: NCI anticancer screen, dose series, 48 h
Assay [1] deals with UO-31 renal.
The test system of assay [2] is SNB-75 CNS.
Assay [3] deals with U251 CNS.
In assay [4] the test system is HCT-15 colon.
Assay [5] has as its system RPMI-8226 leukemia.
The subject of assay [6] is SN12C renal.
Assay [7] concerns SK-OV-3 ovarian.
Assay [8] relates to EKVX NSCLC.
The test system of assay [9] is COLO 205 colon.
The test system of assay [10] is OVCAR-8 ovarian.

On to `NC(=S)N/N=C/c1ccc(OC(=O)COc2ccc(Cl)cc2)cn1`, for which the GI50 in assay [1] was 3.24 µM; in assay [3], 4.24 µM; in assay [4] it was 22.9 µM; in assay [5] it was 7.31 µM; in [6], 4.53 µM; in [7], 40 µM. For the same molecule, the GI50 was 30.9 µM in [8], 31.8 µM in assay [9] and 3.63 µM in assay [10]. Moreover, the TGI in assay [1] is 21.5 µM; in assay [2], more than 100 µM; in [3], more than 100 µM; in [4], more than 100 µM; in [5] it was more than 100 µM; in assay [6], more than 100 µM. In addition, the TGI in [7], in assay [8], in assay [9] and in assay [10] was more than 100 µM in each case.

Consider `CCCCCCCCCCCCCC1CCC(CC)N1` (stereo unspecified), for which the TGI was determined as 27.4 µM in assay [1]; 17.7 µM in assay [2]; 18 µM in assay [3]; 16.5 µM in [4]; 36.8 µM in assay [5]; 23.4 µM in [6]. The TGI in assay [7] is 30.7 µM; in assay [8], 31.4 µM; in assay [9] it was 28.9 µM; in assay [10], 39.1 µM.

On to `Cc1ccc2nc3c(C(=O)NCCN(C)C)cccc3nc2c1`, for which the TGI is more than 54.8 µM in assay [1]; 42.9 µM in assay [2]; 24.3 µM in [3]; 18 µM in assay [4]; 40.8 µM in assay [5]; 27.9 µM in [6]. Moreover, the TGI in assay [7] is more than 56.3 µM; in assay [8] it was 24.2 µM; in [9], more than 22.4 µM; in [10], more than 42.2 µM.

For the molecule `Clc1nc(Cl)c2ncn(Cc3cccc(COc4cccc(OCc5cccc(Cn6cnc7c(Cl)nc(Cl)nc76)c5)c4)c3)c2n1`, the GI50 in [1] was 66.4 µM; in assay [2] it was more than 100 µM; in [3] it was 36.9 µM; in assay [4], 39 µM; in [5] it was 2.61 µM; in [6], more than 100 µM. Also, the GI50 was more than 100 µM in assay [7], more than 100 µM in [8], more than 100 µM in assay [9] and 24.7 µM in [10]. Moreover, the TGI in [1] was more than 100 µM; in assay [2] it was more than 100 µM; in assay [3] it was more than 100 µM; in assay [4], more than 100 µM; in assay [5] it was 54.8 µM; in assay [6] it was more than 100 µM. In addition, the TGI in assay [7], in assay [8], in assay [9] and in assay [10] was more than 100 µM throughout.

`CC1=C(C)CC2(CCCCC2=O)S(=O)C1` (stereo unspecified): the TGI in assay [1], in [2], in assay [3], in assay [4], in assay [5] and in assay [6] was more than 100 µM throughout. The TGI in assay [7], in assay [8], in assay [9] and in [10] was more than 100 µM each time.

Take `CCc1[nH]c(=O)nc(N)c1-c1ccc(N2CCCCC2)c([N+](=O)[O-])c1`: the TGI in [1], in assay [2], in [3], in [4], in assay [5] and in assay [6] was more than 100 µM throughout. Further, the TGI in [7], in assay [8], in assay [9] and in assay [10] was more than 100 µM in each case.

Consider `CCC1(O)C(=O)OCc2c1cc1n(c2=O)Cc2cc3ccc(C=O)cc3nc2-1` (stereo unspecified), for which the GI50 in [1] is 1.08 µM; in assay [3], 1.02 µM; in [6] it was 1.39 µM; in assay [7] it was 7.45 µM; in assay [8] it was 15.1 µM; in [9], 5.77 µM. In addition, the GI50 in assay [10] was 0.539 µM. Further, the TGI in assay [1] was 5.14 µM and 7.98 µM; in assay [2], 30.8 µM and 14.5 µM; in [3] it was 50 µM and 8.82 µM; in assay [4], 40.2 µM and > 62.4 µM; in assay [5], 30.4 µM; in assay [6], 50 µM and 7.53 µM. The TGI was 50 µM and 52.1 µM in [7]; 50 µM and > 100 µM in [8]; 12.5 µM and 31.3 µM in [9]; 8.02 µM and 24.2 µM in assay [10].

Turning to `N.N.N.N.N.O=C([O-])c1nn[n-]n1.[Cl-].[Co+3]`, the GI50 in assay [1], in assay [2], in assay [3], in [4], in [5] and in assay [6] was more than 100 µM each time. Further, the GI50 in assay [7], in assay [8], in assay [9] and in [10] was more than 100 µM in each case. In addition, the TGI in assay [1], in assay [2], in [3], in [4], in assay [5] and in assay [6] was more than 100 µM in each case. Moreover, the TGI in assay [7], in assay [8], in assay [9] and in assay [10] was more than 100 µM in each case.

With `CCN(CC)CCN1CC(O)=C(c2nc(-c3ccc(Cl)cc3)cs2)C1=N`, the GI50 in [1] is 3.83 µM; in assay [2] it was 1.6 µM; in [3] it was 1.68 µM; in assay [4], 1.58 µM; in assay [5], 2 µM; in assay [6] it was 5.25 µM. Also, the GI50 was 4.76 µM in assay [7], 9.36 µM in assay [8], 2.04 µM in assay [9] and 5.61 µM in assay [10]. Moreover, the TGI was 20.2 µM in assay [1]; 3.4 µM in [2]; 3.17 µM in assay [3]; 3.42 µM in [4]; 5.09 µM in assay [5]; more than 100 µM in [6]. For the same molecule, the TGI in assay [7] was 25.2 µM; in [8], 33.9 µM; in assay [9], 4 µM; in [10], more than 100 µM.
